O=[N+]([O-])c1cccc2cccc([N+](=O)[O-])c12
solubility (mole fraction)
Details | in acetone | in acetonitrile | in chloroform | in ethanol | in ethyl acetate | in isopropanol | in methanol | in n-butanol | in toluene
273.15 K | 0.0103 | 0.00295 | 0.00311 | 0.000242 | 0.00414 | 8.97e-05 | 0.000293 | 0.000155 | 0.00119
275.65 K | 0.0113 | 0.00331 | 0.0035 | 0.000267 | 0.00446 | 0.000103 | 0.000327 | 0.000178 | 0.00125
278.15 K | 0.0119 | 0.0039 | 0.00382 | 0.000294 | 0.00471 | 0.000126 | 0.000356 | 0.00021 | 0.00138
280.65 K | 0.013 | 0.00465 | 0.0042 | 0.000323 | 0.00522 | 0.000146 | 0.000398 | 0.000237 | 0.00157
283.15 K | 0.014 | 0.00528 | 0.00473 | 0.000351 | 0.00551 | 0.000173 | 0.000429 | 0.000272 | 0.00171
285.65 K | 0.0152 | 0.00597 | 0.00508 | 0.000385 | 0.00607 | 0.000198 | 0.000485 | 0.000314 | 0.00188
288.15 K | 0.0163 | 0.00661 | 0.00561 | 0.000427 | 0.00659 | 0.000224 | 0.000536 | 0.000356 | 0.00205
291.15 K | 0.0177 | 0.00761 | 0.00601 | 0.000484 | 0.0072 | 0.000265 | 0.000599 | 0.000411 | 0.00235
293.15 K | 0.0189 | 0.00821 | – | 0.000529 | 0.00765 | 0.000296 | 0.000641 | 0.000449 | 0.00255
295.65 K | 0.0205 | 0.00921 | 0.00732 | 0.000584 | 0.00822 | 0.000334 | 0.000696 | 0.000504 | 0.0028
298.15 K | 0.0223 | 0.0102 | 0.00787 | 0.000646 | – | 0.000382 | 0.000758 | – | 0.00309
300.65 K | 0.0243 | 0.0112 | 0.0084 | 0.00071 | 0.00947 | 0.00043 | 0.000821 | 0.000623 | 0.00344
303.15 K | 0.0261 | 0.012 | 0.00923 | 0.000789 | 0.0102 | 0.000482 | 0.000891 | 0.00069 | 0.00382
305.65 K | 0.028 | 0.013 | 0.00983 | 0.000878 | 0.011 | 0.000536 | 0.000971 | 0.000759 | 0.00427
308.15 K | 0.0306 | 0.014 | 0.0107 | 0.000994 | 0.0119 | 0.000605 | 0.00106 | 0.000832 | 0.00468

From BigSolDB 2.1
